# Columns and labels:
# [1] = system: female diarrhea-type IBS patients; experiment: Efficacy trial in humans 1: double-blind parallel-group study in IBS; format: in vivo, human; conditions: for Daily responder (%), Abdominal Pain and Stool Consistency: placebo 6.5; for Daily responder (%), Stool Consistency: placebo 10.9; for Weekly responder (%), Abdominal Pain and Stool Consistency: placebo 21.7; for Weekly responder (%), Stool Consistency: placebo 28.3; for Daily responder (%), Abdominal Pain: placebo 37; for Weekly responder (%), Abdominal Pain: placebo 39.1; for increase in the number of days per week with no abdominal pain: 4th week of treatment period, placebo 0.61
# Method: As a clinical trail, a double-bind, parallel-group study was conducted under the following conditions in female diarrhea-type IBS patients.
# PURPOSE: Confirmation of efficacy against clinical symptoms of IBS METHODS: This study was conducted at 49 centers in the United States and recruited 200 patients (aged 18-65 years) with female diarrhea-type IBS patients according to Rome III criteria (Gastroenterology, Vol. 130, p. 1480-1491, 2006). Patients were randomly assigned to any of the following three treatment groups (1:1:1 ratio) and received orally administration once-daily for 4 weeks. Patients recorded their IBS symptoms on a daily basis in an e-diary during a 2-week pre-treatment, the 4-week treatment period and for 4 weeks post-treatment. Safety monitoring was performed throughout the study. The primary endpoints were change from baseline (pre-treatment period) to week 4 in stool consistency (Bristol Stool Scale; BSS), stool frequency and abdominal pain (Numerical Rating Scale; NRS). Secondary endpoints included FDA responder analyses (Guidance for Industry Irritable Bowel Syndrome—Clinical Evaluation of Drugs for Treatment).
# (1) Placebo group (2) The compound of the present invention (20 mg treatment) group (3) The compound of the present invention (60 mg treatment) group ENDPOINTS: IBS symptoms (abdominal pain, stool consistency, stool frequency, faecal urgency and severity), QOL, psychological symptoms, safety, pharmacokinetics and biomarker RESULTS: Baseline value of patient layer and each of the parameters (stool consistency, stool frequency and abdominal pain) were similar in each treatment group. […] Further, a greater percentage of patients met responder criteria among patients in 60 mg treatment group of the compound of the present invention compared to placebo treatment group (Table 3, FIG. 10 and FIG. 11). On the other hand, the increase in the number of days per week with no abdominal pain at the 4th week of treatment period were 0.61 in placebo treatment group, 1.16 in 20 mg treatment group and 1.51 in 60 mg treatment group.
# The weekly responder of abdominal pain and stool consistency was defined as a patient who met the both criteria of the above-mentioned abdominal pain score and stool consistency.
# [2] = system: female diarrhea-type IBS patients; experiment: PSS (Perceived Stress Scale) in the clinical trial of Biological example 10; format: in vivo, human; conditions: 60 mg treatment
# Method: In the clinical trial of Biological example 10, the therapeutic effect of the compound of the present invention 60 mg treatment on depression and anxiety-related diseases were evaluated using PSS (Perceived Stress Scale) (refer to Journal of Health and Social Behavior, 24, 386-396, 1983), HAM-A (Hamilton Anxiety Scale) (refer to The British journal of medical psychology, 32, 50-55, 1959) and HAM-D (Hamilton Depression scale) (refer to Journal of Neurology, Neurosurgery and Psychiatry, 23, 56-62, 1960) as rating scales.
# [3] = target: T1, brain TSPO (Rattus norvegicus, UniProt P16257); experiment: Ex vivo brain TSPO occupancy in rats, [3H] PK11195 radiotracer (Biological example 1); conditions: for receptor occupancy at 0.1 mg/kg / receptor occupancy at 0.3 mg/kg / receptor occupancy at 1 mg/kg / receptor occupancy at 3 mg/kg: rat, po, [3H] PK11195; for receptor occupancy at 0.1 mg/kg: 0.1 mg/kg oral; for receptor occupancy at 0.3 mg/kg: 0.3 mg/kg oral; for receptor occupancy at 1 mg/kg: 1 mg/kg oral; for receptor occupancy at 3 mg/kg: 3 mg/kg oral
# T1 construct: measured by using brain (cerebral cortex and hippocampus) homogenates of the vehicle treated group and the compound of the present invention treated group; from tissue; host or cells: Wistar rat brain (cerebral cortex, hippocampus) homogenate
# Method: Male Sic: Wistar rats (Japan SLC, Inc., at the time of use: 11 weeks old) was exposed to physical and mental stressors (Journal of Pharmacological Science, Vol. 104, p. 263-273, 2007). The vehicle (0.5 w/v % methylcellulose 400 cP solution) or the compound of the present invention (0.1, 0.3, 1 and 3 mg/kg) was orally administered. Two hours after the administration, the stressor load was started by putting the rat in a restraint stress cage (Natsume Seisakusho Co., Ltd.). The antistress effect was evaluated by measuring the stool weight which was excreted during the stressor load of 1 hour (n=12 in each group).
# Next, brain TSPO occupancy of the compound of the present invention was measured by using brain (cerebral cortex and hippocampus) homogenates of the vehicle treated group and the compound of the present invention treated group, using [^3H] PK11195 as a radiotracer. PK11195 was dissolved in dimethyl sulfoxide (DMSO) to prepare a 4 mmol/L solution. After preparing an ethanol solution of 100 nmol/L [^3H] PK11195 (PerkinElmer, Inc.), the solution was diluted 50-fold with 50 mmol/L HEPES buffer (Sigma-Aldrich Co.). In the case of determining the total binding amount of the radiotracer, 50 mmol/L HEPES (99 μL) and DMSO (1 μL) were added to Nunc MiniSorp (trade name, 12×75 mm, Thermo Fisher Scientific Inc.). In the case of determining the nonspecific binding amount of the radiotracer, 4 mmol/L PK11195 (1 μL) was substituted for DMSO (1 μL). The brain homogenate (50 μL) derived from cerebral cortex or the hippocampus was added to the tube. Then [^3H] PK11195 (50 μL) (cerebral cortex: final concentration 0.4532 nmol/L, hippocampus: final concentration 0.4520 nmol/L) was added and stirred, and the mixture was incubated for 90 minutes at 4° C. After completion of the reaction, ice-cold 50 mmol/L HEPES (2 mL) was added to the tube, and then the mixture was suction filtered on a glass fiber filter (GF/B, Brandel Inc.) which pretreated with 0.3 w/v % polyethyleneimine (Sigma-Aldrich Co.), to collect the brain homogenate. After drying the glass fiber filter, the absorbing part of the brain homogenate was transferred to a liquid scintillation vial. ACS-II scintillation cocktail (7 mL) was added to the liquid scintillation vial and stirred, and the radioactivity was measured by liquid scintillation counter (TRI-CARB2900TR, PerkinElmer Life and Analytical Sciences Inc.). Specific binding amount (dpm) of [3H] PK11195 in each brain homogenate was set to a value obtained by subtracting the nonspecific binding amount (dpm) from the total binding amount (dpm). TSPO occupancy (%) in cerebral cortex and hippocampus, of the compound of the present invention treated group, were calculated according to the following equation.
# TSPO Occupancy (%)=(1−X/Y)×100
# X: Specific binding amount (dpm) in each brain homogenate Y: Average value (dpm) of specific binding amount in control group
# [4] = 20 mg oral once daily 4 weeks, n = 41
# [5] = 60 mg oral once daily 4 weeks, n = 45
structure (smiles),measurement,setting,value
"COc1cc(Cl)ccc1[C@H]1c2[nH]c3cccc(F)c3c2C2(CC2)CN1C(C)=O [the compound of the present invention, (1S)-2-acetyl-1-(4-chloro-2-methoxyphenyl)-5-fluoro-1,2,3,9-tetrahydrospiro[β-carboline-4,1′-cyclopropane]]",tolerability and safety profile,[1]; 20 mg or 60 mg oral once daily for 4 weeks,well-tolerated and had a favourable safety profile
same,"Daily responder (%), Abdominal Pain and Stool Consistency",[1]; [4],14.6%
same,"Daily responder (%), Stool Consistency",[1]; [4],17.1%
same,"Weekly responder (%), Abdominal Pain and Stool Consistency",[1]; [4],22%
same,"Weekly responder (%), Stool Consistency",[1]; [4],41.5%
same,"Daily responder (%), Abdominal Pain",[1]; [4],36.6%
same,"Weekly responder (%), Abdominal Pain",[1]; [4],39%
same,"Daily responder (%), Abdominal Pain and Stool Consistency",[1]; [5],20%
same,"Daily responder (%), Stool Consistency",[1]; [5],26.7%
same,"Weekly responder (%), Abdominal Pain and Stool Consistency",[1]; [5],37.8%
same,"Weekly responder (%), Stool Consistency",[1]; [5],48.9%
same,"Daily responder (%), Abdominal Pain",[1]; [5],53.3%
same,"Weekly responder (%), Abdominal Pain",[1]; [5],57.8%
same,"number of days per week with at least one stool having a BSS classification of 6 or 7, vs placebo","[1]; 60 mg treatment group, over the 4-week treatment period (FIG. 8)",Improvements over placebo treatment group
same,"average weekly score of the worst abdominal pain experienced during the past 24 hours, vs placebo","[1]; 60 mg treatment group, over the 4-week treatment period (FIG. 9)",Improvements over placebo treatment group
same,increase in the number of days per week with no abdominal pain,[1]; 20 mg treatment group,1.16
same,increase in the number of days per week with no abdominal pain,[1]; 60 mg treatment group,1.51
same,"PSS score, 4th week","[2]; Patient A, baseline 35",19
same,"PSS score, Amount of change from baseline","[2]; Patient A, baseline 35, 4th week",−16
same,"PSS score, 4th week","[2]; Patient B, baseline 23",13
same,"PSS score, Amount of change from baseline","[2]; Patient B, baseline 23, 4th week",−10
same,"PSS score, 4th week","[2]; Patient C, baseline 18",6
same,"PSS score, Amount of change from baseline","[2]; Patient C, baseline 18, 4th week",−12
same,receptor occupancy at 0.1 mg/kg,[3]; rat cerebral cortex,11.8%
same,receptor occupancy at 0.3 mg/kg,[3]; rat cerebral cortex,47.7%
same,receptor occupancy at 1 mg/kg,[3]; rat cerebral cortex,83.8%
same,receptor occupancy at 3 mg/kg,[3]; rat cerebral cortex,94.5%
same,receptor occupancy at 0.1 mg/kg,[3]; rat hippocampus,25.7%
same,receptor occupancy at 0.3 mg/kg,[3]; rat hippocampus,50.7%
same,receptor occupancy at 1 mg/kg,[3]; rat hippocampus,86.3%
same,receptor occupancy at 3 mg/kg,[3]; rat hippocampus,95.1%
same,"brain TSPO occupancy required to exert antistress, antidepressant and antianxiety effect","[3]; rats, achieved by 0.3 to 3 mg/kg, from Biological examples 1 to 4",≥ 50%
